Measured values reported in ChEMBL document CHEMBL3046422, “Insecticidal activity of imidacloprid derivatives with an alkoxy group at the C5 position of the pyridine ring” (2006).

Tests used:
Format in all cases: functional
Periplaneta americana [1] = experiment: Insecticidal activity against adult male Periplaneta americana (American cockroach) dosed through injection into abdomen assessed as mortality measured 24 hr post dose pre-treated with 50 ug metabolic inhibitor PB and 50 ug NIA16388 1 hr before compound injection
Periplaneta americana [2] = experiment: Insecticidal activity against adult male Periplaneta americana (American cockroach) dosed through injection into abdomen assessed as mortality measured 24 hr post dose pre-treated with 50 ug metabolic inhibitor PB 1 hr before compound injection
Periplaneta americana [3] = experiment: Insecticidal activity against adult male Periplaneta americana (American cockroach) dosed through injection into abdomen assessed as mortality measured 24 hr post dose

Row | SMILES | log(1/MLD) (Periplaneta americana [1]) | log(1/MLD) (Periplaneta americana [2]) | log(1/MLD) (Periplaneta americana [3])
1 | O=[N+]([O-])/N=C1\NCCN1Cc1cnc(Cl)c(Cl)c1 [5-CHLOROIMIDACLOPRID] | 9.05 | 9.05 | 8.35
2 | CCCOc1cc(CN2CCN/C2=N\[N+](=O)[O-])cnc1Cl | 6.89 | 6.89 | <6.86
3 | CC(C)Oc1cc(CN2CCN/C2=N\[N+](=O)[O-])cnc1Cl | 8.1 | 7.89 | 6.99
4 | O=[N+]([O-])/N=C1\NCCN1Cc1ccc(Cl)nc1 [IMIDACLOPRID] | 10.15 | 10.15 | 8.96
5 | CCCCCOc1cc(CN2CCN/C2=N\[N+](=O)[O-])cnc1Cl | 6.46 | 6.46 | 5.86
6 | CCCCOc1cc(CN2CCN/C2=N\[N+](=O)[O-])cnc1Cl | 8.12 | 8.12 | 7.12
7 | CCOc1cc(CN2CCN/C2=N\[N+](=O)[O-])cnc1Cl | 8.08 | 7.87 | 7.07
8 | O=[N+]([O-])/N=C1/NCCN1Cc1cnc(Cl)c(F)c1 [5-FLUOROIMIDACLOPRID] | 9.91 | 9.91 | 8.82
9 | COc1cc(CN2CCN/C2=N\[N+](=O)[O-])cnc1Cl | 8.74 | 8.74 | 7.43
